According to patent US9526785B2, “Pharmaceuticals for oral delivery” (Enteris BioPharma, Inc., priority 2013, dated 2016):
Like-named read-outs stand apart in the source and are kept apart here.

Test: Tigecycline plasma PK and % F after PO enteric-coated capsule in dogs
Type: in vivo, Beagle dogs
Conditions: female, beagle, dog, plasma, po; for concentration at 2 hr / concentration at 3 hr / concentration at 4 hr / concentration at 5 hr / concentration at 6 hr / concentration at 8 hr / concentration at 10 hr / concentration at 24 hr: PO 30 mg unformulated enteric-coated capsule; for concentration at 0 min: Time (min) 0.0; for concentration at 0.3 min: Time (min) 0.3; for concentration at 24 min: Time (min) 24.0; for bioavailability: read-out: % F
Description: Adult beagle dogs weighing approximately 9 to 15 kg were used in the study. […] Room temperature was set to be maintained between approximately 20±5° C. Relative humidity was monitored but not controlled.
TEKLAD™ Certified Canine Diet was provided once daily in amounts (˜400 grams) appropriate for the size and age of the animals. Tap water was available ad libitum via automatic watering device or water bowls.
Oral dosing of enteric-coated capsules was accomplished by administering them to the back of the dog's mouth, followed by a chase of 5 mL water to ensure swallowing.
Water was provided ad libitum. […] Subsequently, each group of animals was dosed based on the protocol, i.e. either IV, or PO by capsule.
Minocycline (VWR international) was used as an internal standard. Sample processing/clean-up of plasma samples was carried out offline by protein precipitation with acidified acetonitrile using 0.5% trifluoroacetic acid (TFA).
The HPLC system consisted of Shimadzu SIL-HTc HPLC system equipped with dual Shimadzu LC-10ADvp isopumps, a Shimadzu CTO-10ASvp column temperature controller and a Shimadzu SPD-10Avp variable wavelength detector. […] Mobile phase A consisted of 23 mM phosphate buffer pH 2.5 with 4 mM 1-octanesulfonic acid, while mobile phase B consisting of 90% acetonitrile, 10% water, with 2 mM 1-octanesulfonic acid. […] The total runtime was 18 minutes per sample. The mobile phase flow rate was 1.2 mL/min. Detection was performed using the SPD-10Avp variable wavelength detector set at 350 nm, with a sensitivity of 0.001 aufs.
The samples were then centrifuged under refrigeration at 13 k rpm for 5 minutes. The supernatant was taken and the liquid removed to dryness under nitrogen in a turbovap. The dried extract was reconstituted in 60 μL of mobile phase A and the suspension was further centrifuged at 5 k rpm for 5 minutes to pellet any insoluble matter. The resulting supernatant was then injected onto the LC.
The unknown concentration in dog plasma samples was determined by interpolation of the peak area ratios of analyte:internal standard versus the ratio of their nominal concentrations into the regression line obtained from calibration standards spiked in pooled dog plasma. No regression weighting was used for the calculations. […] The calibration curve covered the range of 0.05 μg/mL to 5 μg/mL. […]
The capsules were enterically coated using a standard preclinical protocol to 10% weight gain. Two studies were conducted.

[1] = 30 mg, Tigecycline Plasma Concentration, SC430, individual dogs
[2] = 30 mg, Tigecycline Plasma Concentration, SC430, mean
[3] = 30 mg, Tigecycline Plasma Concentration, PO 30 mg enteric-coated capsule with 500 mg CA and 100 mg LLC, SC430, individual dogs
[4] = 30 mg, Tigecycline Plasma Concentration, PO 30 mg enteric-coated capsule with 500 mg CA and 100 mg LLC, SC430, mean

CN(C)c1cc(NC(=O)CNC(C)(C)C)c(O)c2c1C[C@H]1C[C@H]3[C@H](N(C)C)C(O)=C(C(N)=O)C(=O)[C@@]3(O)C(O)=C1C2=O [Tigecycline]
concentration at 2 hr [1]: 0 ng/mL | concentration at 2 hr [2]: 0 ng/mL | concentration at 3 hr [1]: 0 ng/mL | concentration at 3 hr [2]: 0 ng/mL | concentration at 4 hr [1]: 0 ng/mL | concentration at 4 hr [2]: 0 ng/mL | concentration at 5 hr [1]: 0 ng/mL | concentration at 5 hr [2]: 0 ng/mL | concentration at 6 hr [1]: 0 ng/mL | concentration at 6 hr [2]: 0 ng/mL | concentration at 8 hr [1]: 0 ng/mL | concentration at 8 hr [2]: 0 ng/mL | concentration at 10 hr [1]: 0 ng/mL | concentration at 10 hr [2]: 0 ng/mL | concentration at 0 min [3]: 0 ng/mL | concentration at 0 min [4]: 0 ng/mL | concentration at 0.3 min [3]: 0 ng/mL | concentration at 0.3 min [4]: 0 ng/mL | concentration at 0.7 min (30 mg, Tigecycline Plasma Concentration, Time (min) 0.7, PO 30 mg enteric-coated capsule with 500 mg CA and 100 mg LLC, SC430, mean): 26.4 ng/mL | concentration at 1 min (30 mg, Tigecycline Plasma Concentration, Time (min) 1.0, PO 30 mg enteric-coated capsule with 500 mg CA and 100 mg LLC, SC430, mean): 49 ng/mL | concentration at […] (30 mg, Tigecycline Plasma Concentration, Time (min) 1.3, PO 30 mg enteric-coated capsule with 500 mg CA and 100 mg LLC, SC430, mean): 51.2 ng/mL | concentration at […] (30 mg, Tigecycline Plasma Concentration, Time (min) 1.7, PO 30 mg enteric-coated capsule with 500 mg CA and 100 mg LLC, SC430, mean): 63.6 ng/mL | concentration at 2 min (30 mg, Tigecycline Plasma Concentration, Time (min) 2.0, PO 30 mg enteric-coated capsule with 500 mg CA and 100 mg LLC, SC430, mean): 83.5 ng/mL | concentration at […] (30 mg, Tigecycline Plasma Concentration, Time (min) 2.3, PO 30 mg enteric-coated capsule with 500 mg CA and 100 mg LLC, SC430, mean): 72.1 ng/mL | concentration at […] (30 mg, Tigecycline Plasma Concentration, Time (min) 2.7, PO 30 mg enteric-coated capsule with 500 mg CA and 100 mg LLC, SC430, mean): 59.1 ng/mL | concentration at 3 min (30 mg, Tigecycline Plasma Concentration, Time (min) 3.0, PO 30 mg enteric-coated capsule with 500 mg CA and 100 mg LLC, SC430, mean): 49.9 ng/mL | concentration at […] (30 mg, Tigecycline Plasma Concentration, Time (min) 3.3, PO 30 mg enteric-coated capsule with 500 mg CA and 100 mg LLC, SC430, mean): 42.4 ng/mL | concentration at […] (30 mg, Tigecycline Plasma Concentration, Time (min) 3.7, PO 30 mg enteric-coated capsule with 500 mg CA and 100 mg LLC, SC430, mean): 40.6 ng/mL | concentration at 4 min (30 mg, Tigecycline Plasma Concentration, Time (min) 4.0, PO 30 mg enteric-coated capsule with 500 mg CA and 100 mg LLC, SC430, mean): 36.6 ng/mL | concentration at […] (30 mg, Tigecycline Plasma Concentration, Time (min) 4.5, PO 30 mg enteric-coated capsule with 500 mg CA and 100 mg LLC, SC430, mean): 33.5 ng/mL | concentration at 5 min (30 mg, Tigecycline Plasma Concentration, Time (min) 5.0, PO 30 mg enteric-coated capsule with 500 mg CA and 100 mg LLC, SC430, mean): 31.8 ng/mL | concentration at […] (30 mg, Tigecycline Plasma Concentration, Time (min) 5.5, PO 30 mg enteric-coated capsule with 500 mg CA and 100 mg LLC, SC430, mean): 37.9 ng/mL | concentration at 6 min (30 mg, Tigecycline Plasma Concentration, Time (min) 6.0, PO 30 mg enteric-coated capsule with 500 mg CA and 100 mg LLC, SC430, mean): 21.2 ng/mL | concentration at 8 min (30 mg, Tigecycline Plasma Concentration, Time (min) 8.0, PO 30 mg enteric-coated capsule with 500 mg CA and 100 mg LLC, SC430, mean): 7.27 ng/mL | concentration at 10 min (30 mg, Tigecycline Plasma Concentration, Time (min) 10.0, PO 30 mg enteric-coated capsule with 500 mg CA and 100 mg LLC, SC430, mean): 2.58 ng/mL | concentration at 24 min [3]: 0 ng/mL | concentration at 24 min [4]: 0 ng/mL | concentration at 24 hr [1]: 0 ng/mL | concentration at 24 hr [2]: 0 ng/mL | Cmax (30 mg, target dose 30 mg, enterically coated capsule, excluding animal 5256, read-out: Observed Mean Cmax): 121 ng/mL | AUC(0-t) (30 mg, target dose 30 mg, enterically coated capsule, time scale adjusted to 4 hours, excluding animal 5256, read-out: Observed AUC(0-t)): 214 ng·h/mL | bioavailability (30 mg): 14.9% | AUC(0-t) (30 mg, read-out: AUC(0-t)): 367 ng·h/mL | Cmax (30 mg, read-out: Cmax): 121 ng/mL | bioavailability (45 mg, 45 mg Formulated (500 mg CA, 100 mg LLC) enteric coated capsule, Study 2 (SC430), mean (% CV)): 15.5% | AUC(0-t) (45 mg, 45 mg Formulated (500 mg CA, 100 mg LLC) enteric coated capsule, Study 2 (SC430), mean (% CV), read-out: AUC(0-t)): 574 ng·h/mL | Cmax (45 mg, 45 mg Formulated (500 mg CA, 100 mg LLC) enteric coated capsule, Study 2 (SC430), mean (% CV), read-out: Cmax): 177 ng/mL
